Results reported in patent publication US6599499B1, “Uses of diterpenoid triepoxides as an anti-proliferative agent” (priority 1999, dated 2003).

Key:
[1] = test system: H23 (non-small cell lung cancer) cell line; test: cells
Method: (§1) Cells and Transfections. H23 (non-small cell lung cancer) and ZR-75 (breast cancer) cell lines were purchased from ATCC. The Bcl-2 expression vector was provided by Fred Hutchinson Cancer Research Center, Seattle, Wash. MES-SA and Dx5 cell lines were provided by Branimir Sikic (Stanford University). Cells were cultured in the appropriate medium with 10% FCS supplemented with L-glutamine, penicillin and streptomycin. To examine the effect of Bcl-2 on cell survival, the Bcl-2 expression vector or the vector alone was co-transfected with a β galactosidase expression vector (Invitrogen, Carlsbad, Calif.) at a 5:1 ratio using lipofectamine plus (GIBCO BRL, Gaithersburg, Md.) into Dx5 cells. After 36 h cells were stained with 5-bromo4-chloro-3-indolyl […]-D-galactopyranoside (X-gal). Cell survival was calculated as number of total cells-blue cells/total number of cells in a 90 mm^2 area from duplicate plates and expressed as the mean ±S.D.
(§2) Cell death reagents and assays. Cell viability was measured by an MTT assay as recently described (Lee et al. (1999) J. Biol. Chem. 274:13451-13455. z-VAD-fluoromethylketone (z-VAD.fmk) was obtained from Alexis Biochemicals, San Diego, Calif. The effect of z-VAD.fmk on cell viability was analyzed by annexin and propidium iodide staining followed by FACS analysis according to the manufacturer's protocol (Clontech Laboratories, Palo Alto, Calif.). The analysis of apoptosis in histologic sections was done by terminal deoxynucleotidyl transferase (TdT)-mediated d-UTP nick end labeling (TUNEL) of slides from paraffin sections of day 3 tumors harvested from the mice 24 h after the second of two daily treatments with PG490-88 or saline. TUNEL staining was done according to the manufacturer's protocol (Boehringer Mannheim, Indianapolis, Ind.) and then the histology slides were counterstained with methyl green. DNA was isolated from cells for analysis of internucleosomal DNA laddering followed by agarose gel electrophoresis and ethidium bromide staining.
(§3) In FIG. 1A, ZR-75 (breast cancer), H23 (non-small cell lung cancer) and Dx5 (MDR uterine sarcoma) cell lines were treated with PG490 at dosages shown and harvested 48 h later for analysis of cell viability by an MTT assay. Data is the mean of three experiments ±S.D. In FIG. 1B, DNA was isolated from untreated or PG490-treated cells 16 h after the addition of PG490 followed by agarose gel electrophoresis and ethidium bromide staining.

[2] = test system: ZR-75 (breast cancer) cell line; test: cells; conditions: ZR75, 48 h
Method: as §1, §2, §3

[3] = test system: Dx5 (MDR uterine sarcoma) cell line; test: cells
Method: as §1, §2, §3

HT1080 cells [4] = test: Cell viability by trypan blue exclusion, HT1080 cells (Example 5)
Method: Cell Viability Assay. HT-1080 cells were seeded into 6-well plates at 2×10^5 per well the day before the treatment. For the inducible expression of exogenous p21 and LacZ, the stable transfectants were cultured in the presence of 5 μM ponasterone A for 16 h. […] The cells were untreated or treated with doxorubicin, triptolide, or the combination of both at indicated dosages for 8 h at 37° C. Subsequently, the medium was replaced with new media plus 5 μM ponasterone A. After 16 h incubation at 37° C., the number of viable cells within the same fields were determined by trypan blue exclusion with a 2% trypan blue solution.

HT1080 cells [5] = test: Apoptosis by Annexin V and Propidium Iodide staining, HT1080 cells; format: cell-based, human; design: unit of the concentration uncertain; conditions: HT1080, 20 h; PG490 5 ng/ml; CPT-11 (5 µM) alone, (5 μM) in combination; PG490 pretreatment 4 h then CPT-11 16 h
Method: HT1080 cells were treated as shown and harvested for analysis of apoptosis by Annexin V and Propidium Iodide staining 20 h after treatment. In experiments with a combination of PG490 and CPT-11, cells were pretreated with PG490 for 4 h followed by the addition of CPT-11 for 16 h.

[6] = test system: p53 consensus binding site; test: Electromobility shift assay of p53 DNA binding; format: cell-based, human
Method: Electromobility Shift Assay (EMSA. HT1080 cells were treated as shown. The EMSA was performed as described previously using an end-labeled 32P-p53 consensus binding site (Santa Cruz Biotechnology, Santa Cruz, Calif.) (Lee et al., supra.)

Dx5 and H23 cells = test: Growth arrest / cell cycle progression in Dx5 and H23 cells; format: cell-based, human
p53 translation = p53 translation by 35S methionine metabolic labeling of HT1080 cells; format: cell-based, human; conditions: HT1080, triptolide 20 ng/ml pretreatment 6 h
Method: Metabolic Labeling of HT1080 Cells. Cells were grown to 80% confluence followed by pretreatment with triptolide (20 ng/ml) for 6 h in the appropriate medium. Cells were washed twice with short term labeling medium (RPMI with 5% dialyzed fetal calf serum supplemented with L-glutamine, penicillin, and streptomycin). To deplete intracellular pools of methionine, short term labeling medium was added for 15 min at 37° C. and then replaced by short term labeling medium containing 0.1 mCi/ml [35S]methionine (Amersham Pharmacia Biotech). Cells were labeled for 30 min at 37° C. and washed with ice-cold PBS before harvesting for immunoprecipitation. The cells were lysed using RIPA buffer supplemented with protease inhibitors and immunoprecipitated using an agarose-conjugated p53 mAb (Ab-6, Oncogene Research Products) followed by 10% SDS-PAGE. The intensity of labeled p53 protein was measured by NIH Image 1.62.

HT1080 tumor cells = test: Nude mouse xenograft, established HT1080 tumors; format: in vivo, nude mice; conditions: PG490-88 0.75 mg/kg IP days 0-5 and 7-11, CPT-11 11 mg/kg IV days 1, 5, 9
Method: Mice. […] Nude mouse xenograft model. HT1080 tumor cells were grown in tissue culture flasks and harvested using EDTA and trypsin. Cells were centrifuged and the concentration of viable cells was appropriately adjusted. […] Tumor size was monitored after tumor cell implantation by measuring the width, length and thickness of the tumors and using a formula to calculate the volume. […] Control mice were left untreated. […] Combination therapy mice received both PG490-88 and CPT-11 treatments.

Compound | cytotoxicity at 0.01 µg/mL ([1]; Homo sapiens, NCI-H23, 48 h, read-out: decrease in cell viability) [%] | cytotoxicity at 0.02 µg/mL ([1]; Homo sapiens, NCI-H23, 48 h, read-out: reduction of cell viability) [%] | cell death, % of cells ([1]; mutant p53 lung cancer cell line) | cytotoxicity at 0.01 µg/mL ([2]; read-out: decrease in cell viability) [%] | cytotoxicity at 0.02 µg/mL ([2]; read-out: reduction of cell viability) [%] | difference in sensitivity between Dx5 cell line and parent MES-SA cell line [3] | cytotoxicity at 0.01 µg/mL ([3]; Homo sapiens, 48 h, read-out: decrease in cell viability) [%] | cytotoxicity at 0.02 µg/mL ([3]; Homo sapiens, 48 h, read-out: reduction of cell viability) [%] | effect on cell death by carboplatinum (HT1080 cells [4]; A549 and HT1080 cells) | cytotoxicity at 0.02 µg/mL (HT1080 cells [4]; Homo sapiens, HT-1080, 24 h, read-out: reduction of HT1080 cell viability) [%] | Apoptotic Cells (%) (HT1080 cells [5]) | DNA binding of p53 ([6]; triptolide alone) | effect on doxorubicin-mediated induction of DNA binding of p53 ([6]; triptolide in combination with doxorubicin) | growth arrest / cell cycle progression (Dx5 and H23 cells) | increase in p53 translation (p53 translation) [fold] | TV Mean Day 4 (HT1080 tumor cells) | TV Mean Day 7 (HT1080 tumor cells) | TV Mean Day 10 (HT1080 tumor cells) | TV Mean Day 14 (HT1080 tumor cells) | TV Mean Day 0 (HT1080 tumor cells; baseline)
CC(C)[C@]12O[C@H]1[C@@H]1O[C@]13[C@]1(O[C@H]1C[C@H]1C4=C(CC[C@@]13C)C(=O)OC4)[C@@H]2O [PG490, triptolide] | 65 to 70 | > 80 | over 80% | 24 | > 80 | No significant difference | 65 to 70 | > 80 | enhanced cell death | 84 | 13.5 | slightly enhanced | did not block | did not cause growth arrest or significantly affect cell cycle progression | 4.9 |  |  |  |  | 
CC(C)[C@]12O[C@H]1[C@@H]1O[C@]13[C@]1(O[C@H]1C[C@H]1C4=C(CC[C@@]13C)C(=O)OC4)[C@@H]2OC(=O)CCC(=O)[O-].[Na+] [PG490-88, 14-succinyl triptolide sodium salt] |  |  |  |  |  |  |  |  |  |  |  |  |  |  |  | 167 | 208 | 247 | 532 | 107
